Where a SMILES comes first, the peptide text is derived from it. [ ]: non-standard residue; d: D form. pGlu = O=C1CC[C@@H](C(=O)O)N1
System: grass carp pituitary cells
Assay: RNA-seq of pituitary cells treated with GnRH3
Format: cell-based, grass carp (Ctenopharyngodon idellus)
Details: GnRH3 1 μM, 24 h
Description: Then, total RNA was extracted from each well by TRIzol reagent (Yeasen) and DNase II was used to eliminate the interference of genomic DNA. The concentration and purity of each RNA sample were detected by a NanoDrop 2000 spectrophotometer, while the quality of RNA was identified on an Agilent 2100 Bioanalyzer using the RNA 6000 Nano Kit (Agilent Technologies, Santa Clara, CA, USA). […] In this study, a read depth of 0.6 billion 150-bp single-end reads was used and about 90% of reads were mapped to the genome. Gene expression levels were assigned individual values by being normalized to the number of transcripts per kilobase of exon model per million […]. […] The P-value indicated the credibility of each differential gene expression and was corrected by the false discovery rate (FDR) ([21]). […] In the present study, using grass carp pituitary cells as model, high-throughput RNA-seq was used to examine the pituitary actions of GnRH3 in teleost. […] The most abundant GO terms among the cellular component category were ‘intracellular part’, ‘membrane-bounded organelle’, ‘intracellular membrane-bounded organelle’, ‘organelle part’, and ‘intracellular organelle part’. Furthermore, the plentiful groups of biological processes were ‘metabolic process’, ‘organic substance metabolic process’, ‘primary metabolic process’, ‘cellular metabolic process’, and ‘biological regulation ( Figure 3A ).

Compound: CC(C)C[C@H](NC(=O)[C@H](Cc1c[nH]c2ccccc12)NC(=O)CNC(=O)[C@H](Cc1ccc(O)cc1)NC(=O)[C@H](CO)NC(=O)[C@H](Cc1c[nH]c2ccccc12)NC(=O)[C@H](Cc1c[nH]cn1)NC(=O)[C@@H]1CCC(=O)N1)C(=O)N1CCC[C@H]1C(=O)NCC(N)=O [GnRH3] ([pGlu]HWSYGWLPG-NH2)
- fold change (FC), suhb mRNA (3-Beta-hydroxysteroid sulfotransferase, FDR 2.86E-22): 0.44
- fold change (FC), atp5me mRNA (ATP synthase subunit e, FDR 5.40E-07): 0.69
- fold change (FC), arpc4 mRNA (Actin-related protein 2/3 subunit 4-like, FDR 1.86E-42): 0.66
- fold change (FC), creb2 mRNA (Activating transcription factor 4b, FDR 1.69E-07): 1.56
- fold change (FC), cart2 mRNA (Amphetamine-regulated transcript II precursor, FDR 1.73E-22): 19.16
- fold change (FC), anx11 mRNA (Annexin 11a, FDR 0): 3.17
- fold change (FC), mx1 mRNA (Antiviral effector Mx3, FDR 0.004203): 0.29
- fold change (FC), manf mRNA (Astrocyte-derived neurotrophic factor, FDR 6.58E-124): 1.71
- fold change (FC), npr3 mRNA (Atrial natriuretic peptide receptor 3 isoform X1, FDR 0): 11.53
- fold change (FC), e2.7.3.2 mRNA (Brain creatine kinase b, FDR 0): 3.88
- fold change (FC), agrb1 mRNA (Brain-specific angiogenesis inhibitor 1-like, FDR 0): 8.87
- fold change (FC), calm mRNA (Calmodulin, FDR 2.37E-221): 0.68
- fold change (FC), ctsl mRNA (Cathepsin La isoform X1, FDR 0): 2.55
- fold change (FC), cckar mRNA (Cholecystokinin receptor-like isoform, FDR 0.40): 1.41
- fold change (FC), chd4 mRNA (Chromodomain-DNA-binding protein 4, FDR 3.30E-172): 0.64
- fold change (FC), ctro mRNA (Citron Rho-interacting kinase, FDR 3.29E-164): 5.24
- fold change (FC), bha15 mRNA (Class A basic helix-loop-helix protein 15, FDR 0): 1.66
- fold change (FC), sod1 mRNA (Copper/zinc superoxide dismutase, FDR 1.09E-31): 0.69
- fold change (FC), mdh1 mRNA (Cytosolic malate dehydrogenase, FDR 4.31E-77): 0.68
- fold change (FC), dgkz mRNA (Diacylglycerol kinase zeta-like isoform X1, FDR 0.003213): 0.41
- fold change (FC), drd2 mRNA (Dopamine D2 receptor, FDR 2.63E-37): 0.35
- fold change (FC), rergl mRNA (Estrogen-regulated inhibitor-like protein, FDR 2.35E-26): 6.29
- fold change (FC), npy2r mRNA (Europeptide Y receptor type 2-like, FDR 0.07342027): 0.44
- fold change (FC), fabp7 mRNA (Fatty acid binding protein 7, FDR 5.12E-107): 0.50
- fold change (FC), fabp3 mRNA (Fatty-acid binding protein 3b, FDR 1.56E-177): 0.63
- fold change (FC), fth1 mRNA (Ferritin heavy chain, FDR 0): 1.90
- fold change (FC), gmpr1 mRNA (GMP reductase 1, FDR 2.64E-126): 0.61
- fold change (FC), bip mRNA (GRP78, FDR 5.39E-31): 1.78
- fold change (FC), ggh mRNA (Gamma-glutamyl hydrolase, FDR 1.06E-186): 1.51
- fold change (FC), grp mRNA (Gastrin-releasing peptide-like, FDR 1.46E-176): 1.52
- fold change (FC), gst mRNA (Glutathione S-transferase, FDR 8.59E-06): 0.67
- fold change (FC), gphb5 mRNA (Glycoprotein hormone beta-5, FDR 2.13E-64): 0.69
- fold change (FC), gthα mRNA (Glycoprotein hormones alpha chain, FDR 0): 1.28
- total number of different expression genes (DEGs) (three replicates, TPM >5, FDR <0.05): 820
- number of downregulated genes (three replicates, TPM >5, FDR <0.05, FC <0.7): 575
- number of upregulated genes (three replicates, TPM >5, FDR <0.05, FC >1.5): 245
- fold change (FC), pa2g3 mRNA (Group 3 secretory phospholipase A2-like, FDR 6.47E-212): 0.29
- fold change (FC), hpt mRNA (Haptoglobin-like, FDR 4.16E-131): 5.16
- fold change (FC), hmgb1 mRNA (High-mobility group box 1, FDR 7.95E-46): 0.69
- fold change (FC), hint1 mRNA (Histidine triad nucleotide-binding protein 1, FDR 7.80E-16): 0.66
- fold change (FC), h2a mRNA (Histone H2A, FDR 1.56E-20): 0.63
- fold change (FC), h2b3 mRNA (Histone H2B 3, FDR 4.58E-23): 0.53
- fold change (FC), h4 mRNA (Histone H4, FDR 0.002615): 0.68
- fold change (FC), inhba mRNA (Inhibin-beta A, FDR 1.08E-11): 1.90
- fold change (FC), il10ra mRNA (Interleukin-10 receptor 1, FDR 0.009871): 27.19
- fold change (FC), erg7 mRNA (Lanosterol synthase, FDR 1.00E-62): 0.43
- fold change (FC), lepr mRNA (Leptin receptor long form, FDR 6.73E-61): 2.60
- fold change (FC), lhβ mRNA (Luteinizing hormone, FDR 0): 1.32
- fold change (FC), rfx1 mRNA (MHC class II regulatory factor RFX1, FDR 0): 0.28
- fold change (FC), mvp mRNA (Major vault protein, FDR 2.14E-255): 0.64
- fold change (FC), mshr1 mRNA (Melanocyte-stimulating hormone receptor, FDR 0): 0.43
- fold change (FC), m3k20 mRNA (Mitogen-activated protein kinase kinase 20, FDR 0.00526): 0.31
- fold change (FC), smad7 mRNA (Mothers against decapentaplegic homolog 7, FDR 7.44E-31): 1.78
- fold change (FC), mcfd2 mRNA (Multiple coagulation factor deficiency protein, FDR 3.57E-236): 1.65
- fold change (FC), marcksl1b mRNA (Myristoylated alanine-rich C substrate 2, FDR 2.63E-101): 0.67
- fold change (FC), nab1 mRNA (NGFI-A-binding protein 1, FDR 3.65E-131): 5.88
- fold change (FC), nec1 mRNA (Neuroendocrine convertase 1, FDR 0): 1.54
- fold change (FC), nfasc mRNA (Neurofascin, FDR 5.61E-52): 10.71
- fold change (FC), nmb mRNA (Neuromedin-B-like, FDR 4.39E-07): 3.29
- fold change (FC), nltp mRNA (Non-specific lipid-transfer protein, FDR 2.86E-12): 0.41
- fold change (FC), nucb1 mRNA (Nucleobindin-1 precursor, FDR 1.72E-149): 1.56
- fold change (FC), nlrp3 mRNA (PYD domains-containing protein 3-like, FDR 0.000497): 0.26
- fold change (FC), fkbp11 mRNA (Peptidyl-prolyl cis-trans isomerase, FDR 0): 1.94
- fold change (FC), gpr61 mRNA (Probable G-protein coupled receptor-like, FDR 2.17E-78): 7.06
- fold change (FC), pdyn mRNA (Proenkephalin-B-like isoform X1, FDR 7.38E-17): 5.14
- fold change (FC), prl mRNA (Prolactin, FDR 0): 1.22
- fold change (FC), s100b mRNA (Protein S100-B, FDR 3.01E-240): 0.31
- fold change (FC), ppp1r17 mRNA (Protein phosphatase 1 regulatory 17-like, FDR 2.87E-10): 0.68
- fold change (FC), r4rl2 mRNA (Reticulon 4 receptor-like 2b precursor, FDR 6.85E-299): 93.68
- fold change (FC), estd mRNA (S-formylglutathione hydrolase, FDR 4.80E-36): 0.37
- fold change (FC), scg2 mRNA (Secretogranin II precursor, FDR 0): 1.51
- fold change (FC), sqstm1 mRNA (Sequestosome-1 isoform X1, FDR 0): 1.69
- fold change (FC), cdc42bp mRNA (Serine/threonine-protein kinase MRCK beta, FDR 0.004184): 0.37
- fold change (FC), plk2 mRNA (Serine/threonine-protein kinase PLK2, FDR 0): 5.78
- fold change (FC), sec11 mRNA (Signal peptidase complex catalytic subunit, FDR 1.55E-131): 1.55
- fold change (FC), spcs3 mRNA (Signal peptidase complex subunit 3, FDR 2.74E-239): 1.77
- fold change (FC), sstr3 mRNA (Somatostatin receptor type 3, FDR 3.09E-126): 0.42
- fold change (FC), stat4 mRNA (Stat 4-like, FDR 9.86E-21): 0.86
- fold change (FC), stat5a mRNA (Stat5.2 protein, FDR 0.04174356): 0.89
- fold change (FC), sdf2l mRNA (Stromal cell-derived factor 2-like 1, FDR 1.30E-57): 1.55
- fold change (FC), tt39b mRNA (Tetratricopeptide repeat protein 39B-like, FDR 6.74E-06): 6.76
- fold change (FC), rdl mRNA (Thiosulfate sulfurtransferase, FDR 3.51E-111): 1.57
- fold change (FC), ppp1r10 mRNA (Threonine-protein phosphatase 1 regulatory, FDR 2.43E-39): 0.42
- fold change (FC), junb mRNA (Transcription factor jun-B, FDR 2.36E-96): 1.89
- fold change (FC), rhoa mRNA (Transforming protein rhoa, FDR 0.042946): 0.32
- fold change (FC), tpisb mRNA (Triosephosphate isomerase B, FDR 8.61E-53): 0.68
- fold change (FC), tph1 mRNA (Tryptophan 5-hydroxylase 1, FDR 0): 17.70
- fold change (FC), tubb mRNA (Tubulin beta-4B chain, FDR 3.79E-49): 0.40
- fold change (FC), tsg6 mRNA (Tumor necrosis factor-inducible gene 6 protein, FDR 1.99E-06): 5.12
- fold change (FC), crh mRNA (Urotensin 1, FDR 6.72E-06): 1.74
- fold change (FC), snf8 mRNA (Vacuolar-sorting protein SNF8-like, FDR 1.18E-06): 0.44
- fold change (FC), vdac3 mRNA (Voltage-dependent anion-selective protein 3, FDR 5.87E-44): 0.69
- fold change (FC), zbtb8 mRNA (Zinc finger domain-containing protein 8A, FDR 1.08E-73): 1.69
- fold change (FC), zfp36l mRNA (Zinc finger protein 36, C3H type-like 1b, FDR 1.92E-125): 0.66
- fold change (FC), pim1 mRNA (threonine-protein kinase pim-1, FDR 0): 3.25

From paper PMC9595134, “Novel pituitary actions of GnRH in teleost: The link between reproduction and feeding regulation” (Frontiers in Endocrinology, 2022)
